In patent US20160113919A1 (The Board of Trustees of the Leland Stanford Junior …, priority 2014, published 2016):

Tested on: virulent Mtb strain H37Rv
Type: cell-based, Mycobacterium tuberculosis

SMILES	EC80 (microbicidal activity, TB replication in macrophages) [µM]	microbicidal activity compared with S-CQ or racemic CQ
CCN(CC)CCCC(C)Nc1ccnc2cc(Cl)ccc12 (racemic) [racemic CQ, chloroquine]	~10	–
CCN(CC)CCC[C@@H](C)Nc1ccnc2cc(Cl)ccc12 [R-CQ, (R)-chloroquine]	1	significantly higher
CCN(CC)CCC[C@H](C)Nc1ccnc2cc(Cl)ccc12 [S-CQ, (S)-chloroquine]	~10	–
